Experimental data as given in US8945359B2, “Flavin-binding glucose dehydrogenase” (Ikeda Food Research Co., Ltd., priority 2011, dated 2015).

Experiments:
[1] = tested on: Botrytis fabae NBRC7171 flavin-binding glucose dehydrogenase BoGLD (D), purified, wild type; conditions: read-out: Km value, D-glucose varied, Hanes-Woolf plot, DCIP/1-m-PMS, pH 6.0, 37° C.
Source text: The transmitted active fraction was combined with the active fraction eluted after adsorbed and these fractions were concentrated and dialyzed against the buffer solution C3.

[2] = tested on: Sclerotinia sclerotiorum NBRC103652 flavin-binding glucose dehydrogenase ScGLD (C), purified, wild type; assay: Km value to D-glucose (Hanes-Woolf plot), ScGLD; assay type: biochemical; conditions: D-glucose varied, DCIP/1-m-PMS, pH 6.0, 37° C.
Procedure: After the column was washed with the buffer solution C2, a protein was eluted with linear gradient of a buffer solution D3 (500 mM potassium phosphate buffer solution, pH 7.0) in the buffer solution C2.

[3] = tested on: Ciborinia camelliae NBRC103663 flavin-binding glucose dehydrogenase CiGLD (F), purified from A. oryzae NS4 with CiGLD-Atsig modified gene, SEQ ID NO: …; conditions: read-out: Km value, D-glucose varied, Hanes-Woolf plot, DCIP/1-m-PMS, pH 6.0, 37° C.
Procedure: (§1) Each solution was mixed according to the following procedures to measure the absorbance, thereby examining GLD activity.
(§2) Then, 0.05 mL of an enzyme sample was added to the mixture to start a reaction. The amount (ΔA600) of reduction in light absorbance per minute at 600 nm along with the progress of the enzymatic reaction was measured for 5 minutes from the start of the reaction to calculate GLD activity from the straight line part according to the equation 1. At this time, in the measurement of GLD activity, the amount of an enzyme reducing 1 μmol of DCIP at 37° C. and a pH of 6.0 for one minute was defined as 1 U.
(§3) In the above formula, 3.0 represents the amount (mL) of reaction reagent+oxygen solution, 10.8 represents the molar absorption coefficient (mM^−1 cm^−1) of DCIP at a pH of 6.0, 1.0 represents the optical path length (cm) of a cell, 0.05 represents the amount (mL) of the oxygen solution, ΔA600 blank represents a reduction in the amount of light absorbance per minute at 600 nm when the solution used to dilute the enzyme is added in place of the enzyme solution to start a reaction, and df represents a dilution ratio.
Among the eluted protein, an active fraction was concentrated and desalted to obtain a purified enzyme of GLD derived from the genus Ciborinia substituted with water.

[4] = tested on: Ovulinia azaleae NBRC6610 flavin-binding glucose dehydrogenase OvGLD (B), purified, wild type, SEQ ID NO: 6 (without signal sequence SEQ ID NO: 14); conditions: read-out: Km value, D-glucose varied, Hanes-Woolf plot, DCIP/1-m-PMS, pH 6.0, 37° C.
Procedure: as §1, §2, §3

Q: For `OC[C@H]1OC(O)[C@H](O)[C@@H](O)[C@@H]1O` (stereo partly drawn) [D-glucose], which Km [1] is on record?
A: Its Km is 35 mM.

Q: And the Km [2]?
A: The Km was 16.7 mM.

Q: What about the Km [3] of the same compound?
A: The Km was 5.44 mM.

Q: And the Km [4]?
A: The Km was 22.8 mM.
